In patent publication US11332498B2, “Ligands for integrin αVβ8, synthesis and uses thereof” (Technische Universitat Munchen, priority 2017, dated 2022):
Where two headings read alike, the source gives them in different places. Where a SMILES comes first, the peptide text is derived from it. Bridges are numbered along the chain shown (N, C = ends). Roman numbers before positions name the chains, in order. Side-chain parts run from the residue outwards. [ ]: non-standard residue; d: D form. The star is where a group is joined. BODIPY(FL) = CC1=CC(C)=[N+]2C1=Cc1ccc(CCC(=O)*)n1[B-]2(F)F; NMeK = CN[C@@H](CCCCN)C(=O)O; Ahx = NCCCCCC(=O)O

Key:
αvβ5 = αvβ5 (Homo sapiens, UniProt P06756+P18084); test: solid-phase integrin binding assay, αvβ5
Chain of αvβ5 (P06756 31-889 limits assumed): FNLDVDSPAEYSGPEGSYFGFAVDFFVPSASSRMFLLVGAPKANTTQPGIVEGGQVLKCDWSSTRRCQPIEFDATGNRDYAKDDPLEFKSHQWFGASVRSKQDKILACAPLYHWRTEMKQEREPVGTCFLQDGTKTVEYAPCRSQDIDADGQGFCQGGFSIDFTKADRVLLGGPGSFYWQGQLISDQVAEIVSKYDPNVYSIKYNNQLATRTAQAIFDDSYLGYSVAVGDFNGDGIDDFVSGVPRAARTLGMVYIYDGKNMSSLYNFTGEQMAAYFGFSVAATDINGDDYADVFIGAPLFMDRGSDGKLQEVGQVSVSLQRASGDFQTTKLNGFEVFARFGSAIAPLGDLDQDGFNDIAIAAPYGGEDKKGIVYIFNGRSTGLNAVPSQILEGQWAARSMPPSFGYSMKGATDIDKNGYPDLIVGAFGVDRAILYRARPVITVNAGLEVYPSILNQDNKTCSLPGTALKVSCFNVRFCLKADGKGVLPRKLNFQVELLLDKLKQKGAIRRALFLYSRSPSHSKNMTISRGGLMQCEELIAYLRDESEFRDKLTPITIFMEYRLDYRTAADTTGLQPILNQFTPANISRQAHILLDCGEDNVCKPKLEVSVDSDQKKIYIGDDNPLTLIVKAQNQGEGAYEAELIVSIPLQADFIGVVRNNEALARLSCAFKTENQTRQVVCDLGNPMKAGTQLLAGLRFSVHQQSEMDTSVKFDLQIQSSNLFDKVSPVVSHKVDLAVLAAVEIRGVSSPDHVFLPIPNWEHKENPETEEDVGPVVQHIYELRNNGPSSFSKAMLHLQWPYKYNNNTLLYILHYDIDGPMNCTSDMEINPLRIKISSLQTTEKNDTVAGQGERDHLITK
Chain of αvβ5 (P06756 891-1048 partner limits assumed): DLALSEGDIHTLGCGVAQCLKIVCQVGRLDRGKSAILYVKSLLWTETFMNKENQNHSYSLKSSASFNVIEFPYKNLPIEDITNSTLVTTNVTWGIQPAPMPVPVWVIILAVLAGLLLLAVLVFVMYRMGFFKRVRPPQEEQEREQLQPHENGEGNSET
Chain of αvβ5 (P18084 24-799): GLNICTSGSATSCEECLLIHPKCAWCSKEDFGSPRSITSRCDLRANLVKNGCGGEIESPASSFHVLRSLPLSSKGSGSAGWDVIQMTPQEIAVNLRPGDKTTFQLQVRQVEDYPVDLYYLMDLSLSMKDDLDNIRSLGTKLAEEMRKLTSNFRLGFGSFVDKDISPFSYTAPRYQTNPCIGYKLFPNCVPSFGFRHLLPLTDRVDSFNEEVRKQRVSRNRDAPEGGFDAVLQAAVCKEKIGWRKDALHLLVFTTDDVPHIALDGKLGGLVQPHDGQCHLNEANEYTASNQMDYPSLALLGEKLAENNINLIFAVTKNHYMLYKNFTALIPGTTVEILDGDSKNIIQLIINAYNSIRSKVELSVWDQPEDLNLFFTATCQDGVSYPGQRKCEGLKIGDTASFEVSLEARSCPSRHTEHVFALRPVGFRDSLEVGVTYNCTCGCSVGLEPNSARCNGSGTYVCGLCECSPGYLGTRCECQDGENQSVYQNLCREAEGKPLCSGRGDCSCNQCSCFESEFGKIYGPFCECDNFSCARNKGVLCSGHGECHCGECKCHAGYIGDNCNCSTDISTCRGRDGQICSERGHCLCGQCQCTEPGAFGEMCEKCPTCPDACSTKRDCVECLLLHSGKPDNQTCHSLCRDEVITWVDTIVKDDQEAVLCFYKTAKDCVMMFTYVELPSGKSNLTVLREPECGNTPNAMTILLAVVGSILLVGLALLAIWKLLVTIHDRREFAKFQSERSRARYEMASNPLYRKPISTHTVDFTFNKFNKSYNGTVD
Protocol: (§1) The activity and selectivity of integrin ligands were determined by a solid-phase binding assay according to the previously reported protocols using coated extracellular matrix proteins and soluble integrins: Fibronectin (Fn) for α5β1, latent activating protein (LAP) for αvβ6 and αvβ8, Vitronectin (Vn) for αvβ3 and αvβ5, Fibrinogen (Fbg) for αIIbβ3.

α5β1 = α5β1 (Homo sapiens, UniProt P05556+P08648); test: solid-phase integrin binding assay, α5β1
Protocol: as §1

αvβ6 = αvβ6 (Homo sapiens, UniProt P06756+P18564); test: solid-phase integrin binding assay, αvβ6
Chain of αvβ6 (P06756 31-889 limits assumed): as the sequence (P06756 31-889 limits assumed) above
Chain of αvβ6 (P06756 891-992 partner limits assumed): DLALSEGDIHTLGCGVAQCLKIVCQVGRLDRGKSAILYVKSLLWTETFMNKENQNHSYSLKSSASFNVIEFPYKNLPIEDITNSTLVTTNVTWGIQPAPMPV
Chain of αvβ6 (P18564 22-707 limits assumed): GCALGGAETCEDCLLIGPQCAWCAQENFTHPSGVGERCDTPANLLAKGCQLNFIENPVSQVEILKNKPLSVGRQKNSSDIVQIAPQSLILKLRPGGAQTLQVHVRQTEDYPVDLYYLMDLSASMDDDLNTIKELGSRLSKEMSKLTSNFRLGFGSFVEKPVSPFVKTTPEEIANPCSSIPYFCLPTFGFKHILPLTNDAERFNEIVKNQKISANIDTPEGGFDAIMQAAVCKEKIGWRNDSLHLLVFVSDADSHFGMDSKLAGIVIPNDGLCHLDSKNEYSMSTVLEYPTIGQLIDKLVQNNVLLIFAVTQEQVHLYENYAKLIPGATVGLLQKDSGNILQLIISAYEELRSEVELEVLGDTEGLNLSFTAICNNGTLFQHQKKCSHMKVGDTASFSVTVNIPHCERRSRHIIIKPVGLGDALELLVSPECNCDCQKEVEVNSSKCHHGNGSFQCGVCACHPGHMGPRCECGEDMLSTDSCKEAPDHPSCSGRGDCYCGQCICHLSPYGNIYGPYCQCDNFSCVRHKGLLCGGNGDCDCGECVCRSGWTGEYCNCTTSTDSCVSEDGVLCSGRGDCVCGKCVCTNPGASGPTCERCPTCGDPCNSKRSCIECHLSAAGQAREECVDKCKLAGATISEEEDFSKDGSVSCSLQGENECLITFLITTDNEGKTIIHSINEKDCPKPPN
Protocol: as §1

αvβ8 = αvβ8 (Homo sapiens, UniProt P06756+P26012); test: solid-phase integrin binding assay, αvβ8; details: for IC50: Table 1, coated LAP, soluble integrin, read-out: αvβ8 [nM] (integrin binding affinity)
Chain of αvβ8 (P06756 31-889 limits assumed): as the sequence (P06756 31-889 limits assumed) above
Chain of αvβ8 (P06756 891-992 partner limits assumed): as the sequence (P06756 891-992 partner limits assumed) above
Chain of αvβ8 (P26012 43-684 limits assumed): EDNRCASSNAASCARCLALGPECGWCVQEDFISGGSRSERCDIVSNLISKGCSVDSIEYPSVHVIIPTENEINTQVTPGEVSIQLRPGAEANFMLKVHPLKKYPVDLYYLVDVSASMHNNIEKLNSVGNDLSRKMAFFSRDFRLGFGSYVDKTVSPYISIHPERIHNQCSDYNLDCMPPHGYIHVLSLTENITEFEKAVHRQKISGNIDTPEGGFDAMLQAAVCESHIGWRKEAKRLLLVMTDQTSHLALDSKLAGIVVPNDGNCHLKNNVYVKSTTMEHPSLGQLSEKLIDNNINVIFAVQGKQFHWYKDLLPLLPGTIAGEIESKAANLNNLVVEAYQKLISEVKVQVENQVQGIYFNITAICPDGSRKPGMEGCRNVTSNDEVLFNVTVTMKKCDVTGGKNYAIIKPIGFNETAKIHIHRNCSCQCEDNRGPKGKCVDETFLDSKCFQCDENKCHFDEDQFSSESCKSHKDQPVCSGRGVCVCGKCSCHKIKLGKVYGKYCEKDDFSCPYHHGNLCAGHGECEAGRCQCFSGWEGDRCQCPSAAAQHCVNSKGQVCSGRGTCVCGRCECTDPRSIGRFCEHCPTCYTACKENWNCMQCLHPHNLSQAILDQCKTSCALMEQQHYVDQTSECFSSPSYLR

αvβ3 = αvβ3 (Homo sapiens, UniProt P05106+P06756); test: solid-phase integrin binding assay, αvβ3; details: Table 2; coated Vitronectin
Chain of αvβ3 (P06756 31-889 limits assumed): as the sequence (P06756 31-889 limits assumed) above
Chain of αvβ3 (P06756 891-992 partner limits assumed): as the sequence (P06756 891-992 partner limits assumed) above
Chain of αvβ3 (P05106 27-718 limits assumed): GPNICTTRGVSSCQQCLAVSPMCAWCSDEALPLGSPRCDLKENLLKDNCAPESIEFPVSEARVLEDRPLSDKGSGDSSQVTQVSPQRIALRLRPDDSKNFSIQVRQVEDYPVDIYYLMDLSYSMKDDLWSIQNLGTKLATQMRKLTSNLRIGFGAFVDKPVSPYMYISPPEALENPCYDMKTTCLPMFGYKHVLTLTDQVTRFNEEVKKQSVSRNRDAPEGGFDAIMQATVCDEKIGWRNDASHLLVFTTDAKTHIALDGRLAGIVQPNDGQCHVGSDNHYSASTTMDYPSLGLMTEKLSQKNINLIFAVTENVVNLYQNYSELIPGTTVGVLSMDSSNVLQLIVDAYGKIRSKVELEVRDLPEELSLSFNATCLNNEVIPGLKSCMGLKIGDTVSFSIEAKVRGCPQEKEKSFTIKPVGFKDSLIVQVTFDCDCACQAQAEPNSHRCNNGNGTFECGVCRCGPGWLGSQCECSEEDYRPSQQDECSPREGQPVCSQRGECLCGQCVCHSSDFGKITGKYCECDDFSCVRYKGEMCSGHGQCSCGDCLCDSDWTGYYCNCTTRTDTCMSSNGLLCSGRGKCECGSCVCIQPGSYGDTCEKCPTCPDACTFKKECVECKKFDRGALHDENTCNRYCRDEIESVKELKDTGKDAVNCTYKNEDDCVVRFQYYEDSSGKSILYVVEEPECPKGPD
Protocol: as §1

αIIbβ3 = αIIbβ3 (Homo sapiens, UniProt P05106+P08514); test: solid-phase integrin binding assay, αIIbβ3; details: Table 2; coated Fibrinogen
Protocol: as §1

[1] = Table 3, BDPFL-labelled compounds and comparatives
[2] = Table 1, coated LAP, soluble integrin, read-out: αvβ6 [nM] (integrin binding affinity)

SMILES	IC50 (αvβ5; [1]) [nM]	IC50 (αvβ6; [2]) [nM]	IC50 (αvβ8) [nM]	further results
Cc1cc(C)n2c1C=C1C=CC(CCC(=O)NCCCC[C@H]3C(=O)NCC(=O)N[C@@H](CC(C)C)C(=O)N[C@@H](CCCNC(=N)N)C(=O)NCC(=O)N[C@@H](CC(=O)O)C(=O)N[C@@H](CC(C)C)C(=O)N4CCC[C@@H]4C(=O)N3C)=[N+]1[B-]2(F)F [Compound 9a, 9-BDPFL] (cyclo(RGDL[dP][NMeK](BODIPY(FL))GL))	> 10000	–	–	–
CC1=CC(C)=[N+]2C1=Cc1ccc(CCC(=O)NCCCCCC(=O)NCCCC[C@H]3C(=O)NCC(=O)N[C@@H](CC(C)C)C(=O)N[C@@H](CCCNC(=N)N)C(=O)NCC(=O)N[C@@H](CC(=O)O)C(=O)N[C@@H](CC(C)C)C(=O)N4CCC[C@@H]4C(=O)N3C)n1[B-]2(F)F [Compound 9b, 9-Ahx-BDPFL] (cyclo(RGDL[dP][NMeK]([Ahx-BODIPY(FL)])GL))	> 10000	–	–	IC50 (α5β1; [1]): > 1000 nM
Cc1cc(C)n2c1C=C1C=CC(CCC(=O)NCC(=O)N3CCC[C@H]3C(=O)N3CCC[C@H]3C(=O)N3CCC[C@H]3C(=O)NCC(=O)NCCCC[C@H]3C(=O)NCC(=O)N[C@@H](CC(C)C)C(=O)N[C@@H](CCCNC(=N)N)C(=O)NCC(=O)N[C@@H](CC(=O)O)C(=O)N[C@@H](CC(C)C)C(=O)N4CCC[C@@H]4C(=O)N3C)=[N+]1[B-]2(F)F [Compound 9e, 9-G(P)3G-BDPFL] (I: cyclo(RGDL[dP][NMeK]GL) / II: {BODIPY(FL)}-GPPPG; amide I:6-II:C)	> 10000	–	–	IC50 (αvβ6; Table 3, BDPFL-labelled compounds and comparatives, read-out: αvβ6, IC50): 247 nM
Cc1cc(C)n2c1C=C1C=CC(CCC(=O)NCC(=O)N3CCC[C@H]3C(=O)N3CCC[C@H]3C(=O)N3CCC[C@H]3C(=O)N3CCC[C@H]3C(=O)N3CCC[C@H]3C(=O)N3CCC[C@H]3C(=O)NCC(=O)NCCCC[C@H]3C(=O)NCC(=O)N[C@@H](CC(C)C)C(=O)N[C@@H](CCCNC(=N)N)C(=O)NCC(=O)N[C@@H](CC(=O)O)C(=O)N[C@@H](CC(C)C)C(=O)N4CCC[C@@H]4C(=O)N3C)=[N+]1[B-]2(F)F [Compound 9f, 9-G(P)6G-BDPFL] (I: {BODIPY(FL)}-GPPPPPPG / II: cyclo(RGDL[dP][NMeK]GL); amide I:C-II:6)	> 10000	–	–	binding activity to αvβ8 (in words) (αvβ8; comparison with compound 9, comment on Table 3): reduced binding activity
CC(C)C[C@@H]1NC(=O)CNC(=O)[C@@H]2CCCN2C(=O)[C@H]2CCCN2C(=O)[C@H](CC(C)C)NC(=O)[C@H](CC(=O)O)NC(=O)CNC(=O)[C@H](CCCNC(=N)N)NC1=O [compound 2, Cyclo-(Arg-Gly-Asp-Leu-D-Pro-Pro-Gly-Leu)] (cyclo(RGDL[dP]PGL))	–	210	0.93	–
CC(C)C[C@@H]1NC(=O)CNC(=O)[C@H](CCCCN)N(C)C(=O)[C@H]2CCCN2C(=O)[C@H](CC(C)C)NC(=O)[C@H](CC(=O)O)NC(=O)CNC(=O)[C@H](CCCNC(=N)N)NC1=O [compound 8, Cyclo-(Arg-Gly-Asp-Leu-D-Pro-(N-Me-Lys)-Gly-Leu)] (cyclo(RGDL[dP][NMeK]GL))	–	201	6.5	IC50 (αvβ5; Table 2, coated Vitronectin): > 1000 nM; IC50 (α5β1; Table 2, coated Fibronectin): > 1000 nM; IC50 (αvβ3): > 1000 nM; IC50 (αIIbβ3): > 1000 nM
CC(=O)NCCCC[C@H]1C(=O)NCC(=O)N[C@@H](CC(C)C)C(=O)N[C@@H](CCCNC(=N)N)C(=O)NCC(=O)N[C@@H](CC(=O)O)C(=O)N[C@@H](CC(C)C)C(=O)N2CCC[C@@H]2C(=O)N1C [compound 9, Cyclo-(Arg-Gly-Asp-Leu-D-Pro-(N-Me-Lys(Ac))-Gly-Leu)] (cyclo(RGDL[dP][NMeK](Ac)GL))	–	201	6	–
